This is an account of results in US20060110401A1, “Mixture of peptides from c and ns3 proteins of the hepatitis c virus and applications thereof” (priority 2002, published 2006).

Read-outs that look alike come from different tables or passages of the source. Residues, ends and D or L forms follow the SMILES beside them.

For assay [1], the system named is DRB5. The assay is described as follows: DRB5.
Assay [2] deals with DR3. The assay is described as follows: DR3. The text has this:
(§1) Table printed on a drawing sheet, Figure 2
Where the first naming reader finds the target: head: DR3

Assay [3] deals with DP401. The assay is described as follows: DP401.
The target in assay [4] is HLA-DP402 (DPB1*0402) (Homo sapiens, UniProt P04440+P20036, A65V/A84D/A85E/L207M). The assay is described as follows: biochemical. The conditions noted are these: DP*0402; read-out: binds with good affinity to DP402. The class given is binding.
In assay [5] the target is HLA-DP401 (DPB1*0401) (Homo sapiens, UniProt P04440+P20036). The assay is described as follows: biochemical. The conditions noted are these: DP*0401; read-out: binds with good affinity to DP401. The class given is binding.
The test system of assay [6] is DRB3. The assay is described as follows: DRB3.
The subject of assay [7] is DP402. The assay is described as follows: DP402.
Assay [8] relates to DR7. The assay is described as follows: DR7.
Assay [9] has as its system DR11. The assay is described as follows: DR11.
From the text: as §1
(§2) Where the first naming reader finds the target: head: DR11

Assay [10] deals with DR13. The assay is described as follows: DR13.
From the text: as §1
Where the first naming reader finds the target: head: DR13

Assay [11] has as its system DR4. The assay is described as follows: DR4.
In assay [12] the test system is splenocytes from mice transgenic for the human HLA-DR1 molecules. The assay is described as follows: Proliferation assay with splenocytes of immunized HLA-DR1 transgenic mice. The conditions noted are these: 25 μg of single peptide in montanide, subcutaneous, two injections; restimulation 5 μg/ml; FIG. 4A. The class given is in vivo. As for the experimental part: The ability of the peptides having good affinity for the HLA II molecules, as defined above, to induce an immune response was evaluated by means of an in vitro proliferation assay in mice transgenic for HLA-DR1 molecules (Wilkinson et al., Infect. Immunity, 1999, 67, 1501-; Rosloniec et al., J. Exp. Med., 1997, 185, 1113-), pre-immunized with these peptides.
15 days later, a second injection was given under the same conditions. Ten days after the second injection, the animals were sacrificed and their spleen was removed. The splenocytes were cultured in HL-1 medium (Biowhittaker) supplemented with 1% of mouse serum, in the presence of 5 μg/ml of each of the peptides used for the injection, or in the absence of peptide. After 4 days of culture, 1 μCi of tritiated thymidine (Amersham, Life Technologies) was added for 16 h. The tritiated thymidine incorporation was then measured using a beta-counter (Microbeta 1450, Perkin Elmer). The results are expressed as a proliferation index (number of CPM in the presence of peptide/number of CPM in the absence of peptide).

Assay [13] concerns DR15. The assay is described as follows: DR15.
The subject of assay [14] is DRB4. The assay is described as follows: DRB4.
From the text: as §1
Where the first naming reader finds the target: head: DRB4

The target of assay [15] is T1, HLA-DR1 (DRB1*0101) (Homo sapiens, UniProt P01903+P01911, A100R/D57E/F55L/F60I/F76Y/I96L/L162R/M171V/P40L/Q125E/R42F/V115G/Y59C).
T1 construct: endogenous in cells; host or cells: homozygous EBV-transformed human B lymphocyte lines; immunopurified with antibody L243
The assay is described as follows: biochemical. The class given is binding. The conditions noted are these: for IC50: DRB1*0101.

Assay [16] has as its target HLA-DR7 (DRB1*0701) (Homo sapiens, UniProt P01903+P01911, A100R/A102G/A103Q/D57E/D86V/E43K/F76Y/K127E/L162R/M171V/P40G/Q125H/Q99D/R33Q/R42Y/R54Q/S133A/S66F/T210M/V115G/Y107V/Y59L/Y89S). The assay is described as follows: biochemical. The class given is binding. The settings on record: read-out: binds with good affinity to DR7.
The target in assay [17] is T2, HLA-DR15 (DRB1*1501) (Homo sapiens, UniProt P01903+P01911).
T2 construct: endogenous in cells; host or cells: homozygous EBV-transformed human B lymphocyte lines; immunopurified with antibody L243
The assay is described as follows: biochemical. The class given is binding. The conditions noted are these: DRB1*1501; read-out: binds with good affinity to DR15.

Assay [18] deals with DR1. The assay is described as follows: DR1.
The target of assay [19] is T3, HLA-DR4 (DRB1*0401) (Homo sapiens, UniProt P01903+P01911, A100K/A169T/F76Y/I96L/K127E/L162R/M171V/N62H/P40V/Q125Y/R42H/S133A/S149N/S66Y/V115G/V209L/W38E).
T3 construct: endogenous in cells; host or cells: homozygous EBV-transformed human B lymphocyte lines; immunopurified with antibody L243
The assay is described as follows: biochemical. The class given is binding. The conditions noted are these: read-out: binds with good affinity to DR4.

The target of assay [20] is HLA-DR11 (DRB1*1101) (Homo sapiens, UniProt P01903+P01911, A100R/A169T/A87E/I96F/K41T/L162R/M171V/P40S/Q125H/Q178H/Q39Y/Q99D/R42S/S66Y/T262R/V115G/W38E). The assay is described as follows: biochemical. The class given is binding. The conditions noted are these: read-out: binds with good affinity to DR11.
In assay [21] the target is T4, HLA-DRB3 (DRB3*0101) (Homo sapiens, UniProt P01903+P79483).
T4 construct: endogenous in cells; host or cells: homozygous EBV-transformed human B lymphocyte lines; immunopurified with antibody L243
The assay is described as follows: HLA II/peptide binding assay, HLA-DRB3. The conditions noted are these: read-out: binds with good affinity to DRB3.

For assay [22], the system named is DR15. The assay is described as follows: DR15. The text has this: (§3) Table printed on a drawing sheet, Figure 3
(§4) The patent's description of the figure: FIG. 3 illustrates the binding activity, with respect to the HLA II molecules that are predominant in the Caucasian population, of a second series of peptides of the C and NS3 proteins, derived from the first series. The values correspond to the IC50 values, expressed in nM.
(§5) First copying reader's note: The sheet prints no unit; blank spacer lines between peptide groups are left out, and the Nb head is printed slightly left of its column.; the cell N1056-1070 / DR15 is printed empty.; the cell N1056-1070 / DR15 is printed empty.
Where the first naming reader finds the target: head: DR15
The source holds these as a separate data set.

Assay [23] concerns DRB5. The assay is described as follows: DRB5.
From the text: as §3, §4, §5
Where the first naming reader finds the target: head: DRB5
The source holds these as a separate data set.

Assay [24] concerns DR1. The assay is described as follows: DR1.
From the text: as §3, §4, §5
Where the first naming reader finds the target: head: DR1
This is another data set of the same source.

Assay [25] deals with DR4. The assay is described as follows: DR4.
From the text: as §3, §4, §5
Where the first naming reader finds the target: head: DR4
The source holds these as a separate data set.

Assay [26] has as its system DR7. The assay is described as follows: DR7.
From the text: as §3, §4, §5
Where the first naming reader finds the target: head: DR7
This is another data set of the same source.

Assay [27] concerns DP401. The assay is described as follows: DP401.
From the text: as §3, §4, §5
Where the first naming reader finds the target: head: DP401
This is another data set of the same source.

The test system of assay [28] is DR11. The assay is described as follows: DR11.
From the text: as §3, §4, §5, §2
This is another data set of the same source.

Sequence of HLA-DR11 (DRB1*1101) (P01903 26-254 limits assumed, other chains not shown): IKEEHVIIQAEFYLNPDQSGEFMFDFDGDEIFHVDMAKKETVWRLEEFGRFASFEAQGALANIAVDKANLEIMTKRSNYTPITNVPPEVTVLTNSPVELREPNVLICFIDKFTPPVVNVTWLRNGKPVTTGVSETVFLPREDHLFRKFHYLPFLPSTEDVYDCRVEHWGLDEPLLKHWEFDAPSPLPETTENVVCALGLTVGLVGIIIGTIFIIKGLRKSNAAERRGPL

Regarding `CC(C)C[C@H](NC(=O)[C@H](CCCNC(=N)N)NC(=O)[C@@H]1CCCN1C(=O)CNC(=O)[C@H](CCCNC(=N)N)NC(=O)[C@H](CCCNC(=N)N)NC(=O)[C@@H]1CCCN1C(=O)[C@H](CC(C)C)NC(=O)[C@H](CC(C)C)NC(=O)[C@H](Cc1ccc(O)cc1)NC(=O)[C@@H](NC(=O)CNC(=O)CNC(=O)[C@@H](N)C(C)C)C(C)C)C(=O)NCC(=O)N[C@H](C(=O)N[C@@H](CCCNC(=N)N)C(=O)N[C@@H](C)C(=O)N[C@H](C(=O)N[C@@H](CCCNC(=N)N)C(=O)N[C@@H](CCCCN)C(=O)N[C@H](C(=O)N[C@@H](CO)C(=O)N[C@@H](CCC(=O)O)C(=O)N[C@@H](CCCNC(=N)N)C(=O)N[C@@H](CO)C(=O)N[C@@H](CCC(N)=O)C(=O)O)[C@@H](C)O)[C@@H](C)O)C(C)C` [2C 31-57], the IC50 was 0.003 µM in [1]; greater than 100 µM in [2]; greater than 100 µM in assay [3]; less than 1 µM in assay [4]; less than 1 µM in assay [5]; greater than 100 µM in assay [6]. The IC50 in assay [7] was greater than 100 µM; in assay [8], 0.5 µM.
As for `CC(C)C[C@H](NC(=O)[C@H](C)NC(=O)[C@H](CCCNC(=N)N)NC(=O)[C@H](C)N)C(=O)N[C@@H](C)C(=O)N[C@@H](Cc1c[nH]cn1)C(=O)NCC(=O)N[C@H](C(=O)N[C@@H](CCCNC(=N)N)C(=O)N[C@H](C(=O)N[C@@H](CC(C)C)C(=O)N[C@@H](CCC(=O)O)C(=O)N[C@@H](CC(=O)O)C(=O)NCC(=O)N[C@H](C(=O)N[C@@H](CC(N)=O)C(=O)N[C@@H](Cc1ccc(O)cc1)C(=O)N[C@@H](C)C(=O)N[C@H](C(=O)NCC(=O)N[C@@H](CC(N)=O)C(=O)N[C@@H](CC(C)C)C(=O)N1CCC[C@H]1C(=O)NCC(=O)N[C@@H](C)C(=O)N[C@@H](CO)C(=O)O)[C@@H](C)O)C(C)C)C(C)C)C(C)C` [6C 148-173] (H-ARALAHGVRVLEDGVNYATGNLPGAS-OH; N-terminus and C-terminus assumed), the IC50 in assay [1] came to 4.33 µM; in assay [9] it was 4.33 µM; in assay [2], 3.5 µM; in assay [10], 9.5 µM; in assay [11], 0.03 µM; in assay [6] it was 4.83 µM. Further, the IC50 was 6.67 µM in assay [13]; 27.5 µM in [14]; 10 µM in [15] (competition with biotinylated tracer HA 306-318, read-out: IC50, binding to HLA-DR1); 3.17 µM in [8]. Further, the “immune response (splenocyte proliferation index)” value in assay [12] was “do not induce any effect”. Moreover, in assay [15] (legend of FIG. 4), the “affinity for HLA-DR1 (in words)” value is listed as “low affinity”.
For `CC[C@H](C)[C@H](NC(=O)[C@H](CC(N)=O)NC(=O)[C@@H]1CCCN1C(=O)[C@@H](N)CC(=O)O)C(=O)N[C@@H](CCCNC(=N)N)C(=O)N[C@H](C(=O)NCC(=O)N[C@H](C(=O)N[C@@H](CCCNC(=N)N)C(=O)N[C@H](C(=O)N[C@H](C(=O)N[C@H](C(=O)N[C@H](C(=O)NCC(=O)N[C@@H](CO)C(=O)N1CCC[C@H]1C(=O)N[C@H](C(=O)N[C@H](C(=O)N[C@@H](Cc1ccc(O)cc1)C(=O)N[C@@H](CO)C(=O)N[C@H](C(=O)N[C@@H](Cc1ccc(O)cc1)C(=O)NCC(=O)N[C@@H](CCCCN)C(=O)N[C@@H](Cc1ccccc1)C(=O)N[C@@H](CC(C)C)C(=O)N[C@@H](C)C(=O)N[C@@H](CC(=O)O)C(=O)NCC(=O)NCC(=O)O)[C@@H](C)O)[C@@H](C)O)[C@@H](C)CC)[C@@H](C)O)[C@@H](C)O)[C@@H](C)O)[C@@H](C)O)C(C)C)[C@@H](C)O` [19N 1275-1304] (H-DPNIRTGVRTTTTGSPITYSTYGKFLADGG-OH; N-terminus and C-terminus assumed), the IC50 in [1] is 1.3 µM; in assay [2], greater than 100 µM; in assay [16], less than 1 µM; in assay [17], less than 1 µM; in assay [18], 0.15 µM; in [3], 0.548 µM. Further, the IC50 is less than 1 µM in assay [19]; less than 1 µM in assay [20]; less than 1 µM in assay [21]; greater than 100 µM in assay [10]; 0.5 µM in assay [11]; less than 1 µM in assay [5]. The IC50 in assay [6] was 0.15 µM; in [13] it was 0.55 µM; in assay [7], 1.82 µM; in assay [14] it was 3.5 µM; in [15] (read-out: binds with good affinity to DR1) it was less than 1 µM; in [8] it was 0.113 µM.
As for GAPLGGAARALAHG [C 141-155], the IC50 is 50 µM in [22]; 8.33 µM in [23]; 3.5 µM in assay [24]; 80 µM in [25]; 11.8 µM in [26]; 9.49 µM in [27]. Besides, in assay [28], the IC50 stood at 0.49 µM.
